Measured values: patent publication US9605007B2, “2-amino-6-methyl-4,4a,5,6-tetrahydropyrano[3,4-d][1,3]thiazin-8a(8H)-yl-1,3-thiazol-4-yl amides” (Pfizer Inc., priority 2014, dated 2017)
Blank lines part the entries; values can stand above or below the molecule they belong to.

Experiments:
CYP2D6 = CYP2D6 (Homo sapiens (Human), UniProt P10635); assay: General Multi-Point Cocktail DDI IC50 Assay (CYP2D6)
Procedure: General Multi-Point Cocktail DDI IC50 Assay Conditions:
The incubation volume is 0.1 mL, utilizing a 384-well plate format. […] Substrate concentrations are near Km values that had been previously determined and incubation times are selected based on determinations of reaction velocity linearity. […] Samples are directly injected on an HPLC/MS/MS system. A Biomek FX workstation is used for liquid handling and sample incubation.

GSH Incubation Assay = assay type: in vitro ADME; details: for formation of GSH adducts: following incubations; for Observed GSH adducts: glutathione (50 mM) at 37° C. in buffer for 4 hours
Procedure: The test compound (10 μM in DMSO) was incubated with L-glutathione (50 mM, prepared in 100 mM potassium phosphate buffer) at 37° C. for 4 hours and then analyzed by HPLC-UV/MS/MS without work-up. Thermo Accela HPLC and Velos Pro Orbitrap Elite (S/N: SN05189B) operating in positive mode with a source voltage of 3.5 kV with data dependant processing. […] Product assignments were based on high resolution mass spectrometer fragmentation.

[1] = test system: sAPPβ in H4 human neuroglioma cells over-expressing wild-type human APP695; assay: sAPPβ Whole-Cell Assay (WCA); assay type: cell-based; details: 18 h
Procedure: sAPPβ Whole-Cell Assay (WCA):
sAPPβ, the primary cleavage product of BACE1, was determined in H4 human neuroglioma cells over-expressing the wild-type human APP695. […] The colorimetric reaction was read by an EnVision (PerkinElmer) plate-reader.

MDR1 (P-glycoprotein) [2] = target: MDR1 (P-glycoprotein) (Homo sapiens (Human), UniProt P08183); assay: Pgp Liability MDR1 Er; assay type: in vitro ADME; details: MDR1-transfected MDCK line, ratio of permeability Papp BA/AB
Text: (§1) MDR1 Efflux Ratio (MDR Er) from MDR1-transfected MDCK line cell line represents the ratio of permeability, Papp BA/AB.

[3] = HLM CLint (clearance in human liver microsomes); assay type: in vitro ADME
BACE1 = BACE1 (Homo sapiens (Human), UniProt P56817); assay: BACE1 Cell-Free Assay (fluorescence polarization); assay type: biochemical; details: geometric mean of 2-4 determinations unless otherwise indicated (b: ≧5 determinations; c: single determination); read-out: BACE 1 Cell-free Assay IC50
Text: This assay measures the inhibition of the beta-secretase enzyme as it cleaves a non-native peptide.
A synthetic APP substrate that can be cleaved by beta-secretase having N-term inal biotin and made fluorescent by the covalent attachment of Oregon Green at the Cys residue is used to assay beta-secretase activity in the presence or absence of the inhibitory compounds. The substrate is Biotin-[…]-C[Oregon Green]KK-OH. The BACE1 enzyme is affinity purified material from conditioned media of CHO-K1 cells that have been transfected with a soluble BACE construct (BACE1deltaTM96His). […] Plates are covered and incubated for 3 hours at 37° C. […] The activity of the beta-secretase enzyme is detected by changes in the fluorescence polarization that occur when the substrate is cleaved by the enzyme.

MDR1 (P-glycoprotein) [4] = assay: Pgp Liability MDR1 Er; assay type: in vitro ADME; details: dog, MDCK-MDR1
Text: as §1

BACE2/BACE1 = BACE2/BACE1 Binding Ratio (scintillation proximity binding assays); parameters: species or system human; details: ratio of IC50 from respective binding assays, pH 6.0
Procedure: BACE2/BACE1 Binding Ratio:
The BACE1 and BACE2 binding assays measured beta-site amyloid precursor protein-cleaving enzyme (BACE) binding as a decrease in the counts of radioligand bound in a scintillation proximity assay (SPA). […] Full length human BACE1 or BACE2 over-expressed in HEK cells was prepared by Pfizer scientists. Frozen stock cell paste was reacted in 50 mM sodium acetate buffer (pH=6.0) containing 3H-(4aR,6R,8aS)-8a-(2,4-difluorophenyl)-6-(1-methyl-1H-pyrazol-4-yl)-4,4a,5,6,8,8a-hexahydropyrano[3,4-d][1,3]thiazin-2-amine ligand, SPA bead and 60 μM to 600 pM of test compound in an assay volume of 27 uL. The compound plate also contained positive (BACE inhibitor) and negative (DMSO) control wells. The binding was carried out at room temperature for 30 minutes and then the plates were read on a TriLux Microbeta reader to determine the number of counts bound.

CYP2D6, sequence (P10635 whole entry): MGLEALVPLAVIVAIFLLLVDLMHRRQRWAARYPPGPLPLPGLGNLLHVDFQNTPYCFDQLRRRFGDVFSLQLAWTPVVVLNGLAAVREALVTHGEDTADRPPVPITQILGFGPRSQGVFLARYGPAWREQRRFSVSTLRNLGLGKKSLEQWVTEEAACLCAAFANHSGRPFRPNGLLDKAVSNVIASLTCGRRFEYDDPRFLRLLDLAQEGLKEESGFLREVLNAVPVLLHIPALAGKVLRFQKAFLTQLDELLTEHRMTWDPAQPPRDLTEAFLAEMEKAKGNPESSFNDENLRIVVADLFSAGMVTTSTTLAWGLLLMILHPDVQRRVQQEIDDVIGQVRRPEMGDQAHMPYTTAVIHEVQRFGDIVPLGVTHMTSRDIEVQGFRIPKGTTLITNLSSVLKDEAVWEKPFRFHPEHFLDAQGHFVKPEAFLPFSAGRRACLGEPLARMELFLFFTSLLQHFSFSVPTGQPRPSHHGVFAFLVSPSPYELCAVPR
MDR1 (P-glycoprotein) (Homo sapiens (Human), UniProt P08183), sequence (P08183 whole entry): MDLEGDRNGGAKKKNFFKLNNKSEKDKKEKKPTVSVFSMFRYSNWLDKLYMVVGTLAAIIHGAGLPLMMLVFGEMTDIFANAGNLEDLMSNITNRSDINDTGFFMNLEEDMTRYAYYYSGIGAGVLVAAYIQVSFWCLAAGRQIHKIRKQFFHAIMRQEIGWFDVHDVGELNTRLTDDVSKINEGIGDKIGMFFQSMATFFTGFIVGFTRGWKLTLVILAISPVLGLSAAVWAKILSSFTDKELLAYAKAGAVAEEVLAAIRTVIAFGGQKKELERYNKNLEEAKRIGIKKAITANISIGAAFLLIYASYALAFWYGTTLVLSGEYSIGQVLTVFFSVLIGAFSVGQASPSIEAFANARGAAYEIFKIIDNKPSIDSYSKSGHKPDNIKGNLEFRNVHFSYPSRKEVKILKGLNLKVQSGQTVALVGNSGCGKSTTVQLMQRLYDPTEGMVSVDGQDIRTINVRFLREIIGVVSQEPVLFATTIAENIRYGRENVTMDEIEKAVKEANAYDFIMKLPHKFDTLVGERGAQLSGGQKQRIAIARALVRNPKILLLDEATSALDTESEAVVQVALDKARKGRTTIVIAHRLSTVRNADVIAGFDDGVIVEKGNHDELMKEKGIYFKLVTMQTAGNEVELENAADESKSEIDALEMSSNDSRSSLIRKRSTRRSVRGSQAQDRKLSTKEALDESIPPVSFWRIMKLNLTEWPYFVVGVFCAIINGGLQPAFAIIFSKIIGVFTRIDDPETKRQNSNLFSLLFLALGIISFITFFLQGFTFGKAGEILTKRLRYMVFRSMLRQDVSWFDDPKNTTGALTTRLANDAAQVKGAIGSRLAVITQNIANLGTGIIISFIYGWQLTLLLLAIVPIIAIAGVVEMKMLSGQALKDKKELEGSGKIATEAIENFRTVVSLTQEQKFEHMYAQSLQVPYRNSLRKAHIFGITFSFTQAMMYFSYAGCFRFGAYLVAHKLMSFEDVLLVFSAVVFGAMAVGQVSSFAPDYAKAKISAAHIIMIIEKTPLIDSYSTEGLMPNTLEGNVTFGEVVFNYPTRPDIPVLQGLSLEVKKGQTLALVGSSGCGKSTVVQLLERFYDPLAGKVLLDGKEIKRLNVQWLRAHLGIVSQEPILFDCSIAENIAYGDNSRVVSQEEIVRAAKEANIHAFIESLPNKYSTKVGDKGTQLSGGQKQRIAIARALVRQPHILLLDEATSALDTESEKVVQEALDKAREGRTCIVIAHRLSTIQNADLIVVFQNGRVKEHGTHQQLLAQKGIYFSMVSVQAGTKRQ
BACE1, sequence (P56817 46-457): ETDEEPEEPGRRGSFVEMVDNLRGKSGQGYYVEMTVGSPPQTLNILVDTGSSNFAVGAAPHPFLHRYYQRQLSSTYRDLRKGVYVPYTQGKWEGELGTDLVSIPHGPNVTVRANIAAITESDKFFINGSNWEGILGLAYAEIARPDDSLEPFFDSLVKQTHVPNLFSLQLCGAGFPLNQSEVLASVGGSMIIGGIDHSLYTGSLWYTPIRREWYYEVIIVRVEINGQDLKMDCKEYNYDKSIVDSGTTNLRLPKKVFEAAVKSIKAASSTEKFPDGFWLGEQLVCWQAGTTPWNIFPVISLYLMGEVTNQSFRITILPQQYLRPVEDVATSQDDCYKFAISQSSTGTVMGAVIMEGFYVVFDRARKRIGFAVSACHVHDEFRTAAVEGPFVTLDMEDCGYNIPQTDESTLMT

IC50 (CYP2D6): < 30000 nM | formation of GSH adducts (GSH Incubation Assay): not detected | Observed GSH adducts (GSH Incubation Assay): Negative
SMILES: C[C@H]1C[C@H]2CSC(N)=N[C@@]2(c2nc(NC(=O)c3ccc(Cl)cn3)cs2)CO1 [Example 7, N-{2-[(4aR,6S,8aR)-2-amino-6-methyl-4,4a,5,6-tetrahydropyrano[3,4-d][1,3]thiazin-8a(8H)-yl]-1,3-thiazol-4-yl}-5-chloropyridine-2-carboxamide]

IC50 (BACE1): 0.7 nM
SMILES: C[C@H]1C[C@H]2CSC(N)=N[C@@]2(c2nc(NC(=O)c3coc(CF)n3)cs2)CO1 [Example 3, N-{2-[(4aR,6S,8aR)-2-amino-6-methyl-4,4a,5,6-tetrahydropyrano[3,4-d][1,3]thiazin-8a(8H)-yl]-1,3-thiazol-4-yl}-2-(fluoromethyl)-1,3-oxazole-4-carboxamide]

IC50 (CYP2D6): < 30000 nM | formation of GSH adducts (GSH Incubation Assay): not detected | Observed GSH adducts (GSH Incubation Assay): Negative
SMILES: Cc1cc(OC(F)F)cnc1C(=O)Nc1csc([C@]23CO[C@@H](C)C[C@H]2CSC(N)=N3)n1 [Example 45, N-{2-[(4aR,6S,8aR)-2-amino-6-methyl-4,4a,5,6-tetrahydropyrano[3,4-d][1,3]thiazin-8a(8H)-yl]-1,3-thiazol-4-yl}-5-(difluoromethoxy)-3-methylpyridine-2-carboxamide]

IC50 (BACE1): 0.9 nM
SMILES: C[C@H]1C[C@H]2CSC(N)=N[C@@]2(c2nc(NC(=O)c3ccn(C(F)F)n3)cs2)CO1 [Example 4, N-{2-[(4aR,6S,8aR)-2-amino-6-methyl-4,4a,5,6-tetrahydropyrano[3,4-d][1,3]thiazin-8a(8H)-yl]-1,3-thiazol-4-yl}-1-(difluoromethyl)-1H-pyrazole-3-carboxamide]

Second part, the molecule before the results:

SMILES: C[C@H]1C[C@H]2CSC(N)=N[C@@]2(c2nc(NC(=O)c3ccc(OC(F)F)cn3)cs2)CO1 [Example 1, N-{2-[(4aR,6S,8aR)-2-amino-6-methyl-4,4a,5,6-tetrahydropyrano[3,4-d][1,3]thiazin-8a(8H)-yl]-1,3-thiazol-4-yl}-5-(difluoromethoxy)pyridine-2-carboxamide]
IC50 (CYP2D6): < 30000 nM | formation of GSH adducts (GSH Incubation Assay): not detected | Observed GSH adducts (GSH Incubation Assay): Negative

SMILES: NC1=N[C@@]2(c3cc(NC(=O)c4ccc(OC(F)F)cn4)ccc3F)COCC[C@H]2CS1 [Comparator 4]
IC50 [1]: < 1 nM | Pgp liability MDR1 Er (MDR1 (P-glycoprotein) [2]): 6.8 | HLM CLint [3]: 8.3 mL/m in/kg mL/min/kg

SMILES: C[C@H]1C[C@H]2CSC(N)=N[C@@]2(c2nc(NC(=O)c3ccc(OC(F)F)cn3)cs2)CO1 [Comparator 1]
Pgp liability MDR1 Er (MDR1 (P-glycoprotein) [2]): 7.1

SMILES: C[C@H]1C[C@H]2CSC(N)=N[C@@]2(c2nc(NC(=O)c3cnc(OC(F)F)cn3)cs2)CO1 [Example 2, N-{2-[(4aR,6S,8aR)-2-amino-6-methyl-4,4a,5,6-tetrahydropyrano[3,4-d][1,3]thiazin-8a(8H)-yl]-1,3-thiazol-4-yl}-5-(difluoromethoxy)pyrazine-2-carboxamide]
IC50 (CYP2D6): < 30000 nM | efflux ratio (MDR1 (P-glycoprotein) [4]): < 2.5 | formation of GSH adducts (GSH Incubation Assay): not detected | Observed GSH adducts (GSH Incubation Assay): Negative

SMILES: C[C@H]1C[C@H]2CSC(N)=N[C@@]2(c2nc(NC(=O)c3ccc(OC(F)F)cn3)ccc2F)CO1 [Comparator 2]
HLM CLint [3]: 22.9 mL/min/kg

SMILES: NC1=N[C@@]2(c3cc(NC(=O)c4ccc(OC(F)F)cn4)ccc3F)CO[C@@H](C(F)(F)F)C[C@H]2CS1 [Comparator 6]
IC50 [1]: < 1 nM | BACE2/BACE1 Binding Ratio (BACE2/BACE1): 1.0 | Pgp liability MDR1 Er (MDR1 (P-glycoprotein) [2]): 3.2

SMILES: C[C@H]1C[C@H]2CSC(N)=N[C@@]2(c2cc(NC(=O)c3ccc(Cl)cn3)ccc2F)CO1 [Comparator 7]
IC50 [1]: < 1 nM | BACE2/BACE1 Binding Ratio (BACE2/BACE1): 1.0 | HLM CLint [3]: 34.4 mL/min/kg
